Laboratory results: patent US8354269B2 (priority 2008, dated 2013)
Where two headings read alike, the source gives them in different places.

Tests used:
[1] = system: Clostridium autoethanogenum DSM10061
Description: High Performance Liquid Chromatography (HPLC) was used to characterize the level of substrates and products such as for acetate, ethanol, fructose, xylose and pyruvate. HPLC System Agilent 1100 Series. Mobile Phase: 0.0025N Sulphuric Acid. Flow and pressure: 0.800 mL/min. Column: Alltech IOA; Catalog #9648, 150×6.5 mm, particle size 5 μm. Temperature of column: 60° C. Detector: Refractive Index. Temperature of detector: 45° C.
Method for sample preparation: 400 μL of sample+50 μL of 0.15M ZnSO4+50 μL of 0.15M Ba(OH)2 into an Eppendorf tube. Centrifuge 10 min at 12,000 rpm, 4° C. Transfer 200 μL supernatant into an HPLC vial and inject into the HPLC instrument 5 μL.
The serum bottles were charged with CO containing gas (2% H2; 30% N2; 47% CO; 21% CO2) to an overpressure of 30 psi. The gas was purged and refreshed at time=54 h. Growth was monitored by measuring the optical density at 600 nm (OD600nm) and metabolites were detected by HPLC.

[2] = system: Clostridium carboxidivorans DSM15243;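 further: growth tracked as optical density at 600 nm, while ethanol and acetate were quantified in culture samples by HPLC with a refractive index detector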
[3] = system: Clostridium autoethanogenum culture 19630
Description: To determine the cell density in these experiments, the absorbance of the samples was measured at 600 nm (spectrophotometer) and the dry mass determined by extrapolation.
Sterile 234 ml serum bottles were purged three times with 95% CO, 5% CO2 gas and then evacuated to a vacuum of −5 psi. The serum bottles were charged with 25 ml of LM33 media. Additional NiCl2 solutions were optionally added to the serum bottle (to final concentrations of 0.1 mM and 1 mM) which were inoculated with 1 ml of an actively growing Clostridium autoethanogenum culture 19630 from a continuous bioreactor. The headspace of the serum bottle was then filled with CO containing gas to 30 psi (composition 100% CO). The serum bottles were incubated at 37° C. and continuously agitated. Samples were taken at intervals and the headspace was purged and refreshed up to 30 psi following sampling.

[Cl][Ni][Cl] [Nickel, nickel chloride]
Ethanol ([1]; Nickel 200 μM, 0 h): 0.22 ± 0.02 g/L | OD600 nm ([1]; Nickel 200 μM, 0 h): 0.009 ± 0.001 | Ethanol ([1]; Nickel 200 μM, 30 h): 0.22 ± 0.03 g/L | OD600 nm ([1]; Nickel 200 μM, 30 h): 0.038 ± 0.010 | Acetate ([1]; Nickel 200 μM, 54 h): 0.12 ± 0.02 g/L | Ethanol ([1]; Nickel 200 μM, 54 h): 0.23 ± 0.03 g/L | OD600 nm ([1]; Nickel 200 μM, 54 h): 0.052 ± 0.022 | Acetate ([1]; Nickel 200 μM, 102 h): 0.83 ± 0.53 g/L | Ethanol ([1]; Nickel 200 μM, 102 h): 0.23 ± 0.01 g/L | OD600 nm ([1]; Nickel 200 μM, 102 h): 0.223 ± 0.141 | Acetate ([1]; Nickel 200 μM, 127 h): 1.48 ± 0.54 g/L | Ethanol ([1]; Nickel 200 μM, 127 h): 0.30 ± 0.19 g/L | OD600 nm ([1]; Nickel 200 μM, 127 h): 0.333 ± 0.131 | Ethanol ([1]; Nickel 400 μM, 0 h): 0.22 ± 0.02 g/L | OD600 nm ([1]; Nickel 400 μM, 0 h): 0.010 ± 0.001 | Ethanol ([1]; Nickel 400 μM, 30 h): 0.22 ± 0.02 g/L | OD600 nm ([1]; Nickel 400 μM, 30 h): 0.065 ± 0.002 | Acetate ([1]; Nickel 400 μM, 54 h): 0.18 ± 0.10 g/L | Ethanol ([1]; Nickel 400 μM, 54 h): 0.21 ± 0.02 g/L | OD600 nm ([1]; Nickel 400 μM, 54 h): 0.087 ± 0.011 | Acetate ([1]; Nickel 400 μM, 102 h): 1.05 ± 0.85 g/L | Ethanol ([1]; Nickel 400 μM, 102 h): 0.68 ± 0.41 g/L | OD600 nm ([1]; Nickel 400 μM, 102 h): 0.337 ± 0.129 | Acetate ([1]; Nickel 400 μM, 127 h): 1.44 ± 0.83 g/L | Ethanol ([1]; Nickel 400 μM, 127 h): 0.68 ± 0.21 g/L | OD600 nm ([1]; Nickel 400 μM, 127 h): 0.452 ± 0.200 | Ethanol ([1]; Nickel 700 μM, 0 h): 0.23 ± 0.03 g/L | OD600 nm ([1]; Nickel 700 μM, 0 h): 0.011 ± 0.001 | Ethanol ([1]; Nickel 700 μM, 30 h): 0.24 ± 0.02 g/L | OD600 nm ([1]; Nickel 700 μM, 30 h): 0.238 ± 0.023 | Acetate ([1]; Nickel 700 μM, 54 h): 0.25 ± 0.01 g/L | Ethanol ([1]; Nickel 700 μM, 54 h): 0.25 ± 0.03 g/L | OD600 nm ([1]; Nickel 700 μM, 54 h): 0.292 ± 0.013 | Acetate ([1]; Nickel 700 μM, 102 h): 0.94 ± 0.14 g/L | Ethanol ([1]; Nickel 700 μM, 102 h): 0.73 ± 0.05 g/L | OD600 nm ([1]; Nickel 700 μM, 102 h): 0.714 ± 0.060 | Acetate ([1]; Nickel 700 μM, 127 h): 0.95 ± 0.16 g/L | Ethanol ([1]; Nickel 700 μM, 127 h): 0.72 ± 0.03 g/L | OD600 nm ([1]; Nickel 700 μM, 127 h): 0.620 ± 0.021 | Ethanol ([1]; Nickel 1000 μM, 0 h): 0.29 ± 0.04 g/L | OD600 nm ([1]; Nickel 1000 μM, 0 h): 0.010 ± 0.001 | Ethanol ([1]; Nickel 1000 μM, 30 h): 0.28 ± 0.02 g/L | OD600 nm ([1]; Nickel 1000 μM, 30 h): 0.268 ± 0.080 | Acetate ([1]; Nickel 1000 μM, 54 h): 0.38 ± 0.01 g/L | Ethanol ([1]; Nickel 1000 μM, 54 h): 0.26 ± 0.03 g/L | OD600 nm ([1]; Nickel 1000 μM, 54 h): 0.389 ± 0.071 | Acetate ([1]; Nickel 1000 μM, 102 h): 1.57 ± 0.21 g/L | Ethanol ([1]; Nickel 1000 μM, 102 h): 1.02 ± 0.09 g/L | OD600 nm ([1]; Nickel 1000 μM, 102 h): 0.720 ± 0.105 | Acetate ([1]; Nickel 1000 μM, 127 h): 1.78 ± 0.11 g/L | Ethanol ([1]; Nickel 1000 μM, 127 h): 0.99 ± 0.11 g/L | OD600 nm ([1]; Nickel 1000 μM, 127 h): 0.674 ± 0.098 | Ethanol ([2]; Nickel 200 μM, 0 h): 0.18 ± 0.01 g/L | OD600 nm ([2]; Nickel 200 μM, 0 h): 0.010 ± 0.001 | Acetate ([2]; Nickel 200 μM, 30 h): 0.37 ± 0.13 g/L | Ethanol ([2]; Nickel 200 μM, 30 h): 0.18 ± 0.01 g/L | OD600 nm ([2]; Nickel 200 μM, 30 h): 0.185 ± 0.052 | Acetate ([2]; Nickel 200 μM, 54 h): 0.38 ± 0.02 g/L | Ethanol ([2]; Nickel 200 μM, 54 h): 0.33 ± 0.02 g/L | OD600 nm ([2]; Nickel 200 μM, 54 h): 0.239 ± 0.028 | Acetate ([2]; Nickel 200 μM, 102 h): 0.43 ± 0.09 g/L | Ethanol ([2]; Nickel 200 μM, 102 h): 0.33 ± 0.19 g/L | OD600 nm ([2]; Nickel 200 μM, 102 h): 0.274 ± 0.025 | Acetate ([2]; Nickel 200 μM, 127 h): 0.61 ± 0.02 g/L | Ethanol ([2]; Nickel 200 μM, 127 h): 6.69 ± 0.08 g/L | OD600 nm ([2]; Nickel 200 μM, 127 h): 0.285 ± 0.046 | Ethanol ([2]; Nickel 400 μM, 0 h): 0.18 ± 0.06 g/L | OD600 nm ([2]; Nickel 400 μM, 0 h): 0.011 ± 0.002 | Acetate ([2]; Nickel 400 μM, 30 h): 0.35 ± 0.02 g/L | Ethanol ([2]; Nickel 400 μM, 30 h): 0.33 ± 0.11 g/L | OD600 nm ([2]; Nickel 400 μM, 30 h): 0.271 ± 0.001 | Acetate ([2]; Nickel 400 μM, 54 h): 0.41 ± 0.02 g/L | Ethanol ([2]; Nickel 400 μM, 54 h): 0.75 ± 0.01 g/L | OD600 nm ([2]; Nickel 400 μM, 54 h): 0.310 ± 0.037 | Acetate ([2]; Nickel 400 μM, 102 h): 0.37 ± 0.19 g/L | Ethanol ([2]; Nickel 400 μM, 102 h): 0.86 ± 0.03 g/L | OD600 nm ([2]; Nickel 400 μM, 102 h): 0.304 ± 0.035 | Acetate ([2]; Nickel 400 μM, 127 h): 0.47 ± 0.03 g/L | Ethanol ([2]; Nickel 400 μM, 127 h): 0.89 ± 0.08 g/L | OD600 nm ([2]; Nickel 400 μM, 127 h): 0.291 ± 0.026 | Ethanol ([2]; Nickel 700 μM, 0 h): 0.20 ± 0.01 g/L | OD600 nm ([2]; Nickel 700 μM, 0 h): 0.010 ± 0.001 | Acetate ([2]; Nickel 700 μM, 30 h): 0.34 ± 0.01 g/L | Ethanol ([2]; Nickel 700 μM, 30 h): 0.27 ± 0.01 g/L | OD600 nm ([2]; Nickel 700 μM, 30 h): 0.402 ± 0.014 | Acetate ([2]; Nickel 700 μM, 54 h): 0.40 ± 0.05 g/L | Ethanol ([2]; Nickel 700 μM, 54 h): 0.84 ± 0.03 g/L | OD600 nm ([2]; Nickel 700 μM, 54 h): 0.689 ± 0.097 | Acetate ([2]; Nickel 700 μM, 102 h): 0.65 ± 0.06 g/L | Ethanol ([2]; Nickel 700 μM, 102 h): 0.86 ± 0.25 g/L | OD600 nm ([2]; Nickel 700 μM, 102 h): 0.519 ± 0.078 | Acetate ([2]; Nickel 700 μM, 127 h): 0.63 ± 0.32 g/L | Ethanol ([2]; Nickel 700 μM, 127 h): 1.01 ± 0.17 g/L | OD600 nm ([2]; Nickel 700 μM, 127 h): 0.584 ± 0.088 | Ethanol ([2]; Nickel 1000 μM, 0 h): 0.18 ± 0.01 g/L | OD600 nm ([2]; Nickel 1000 μM, 0 h): 0.009 ± 0.001 | Acetate ([2]; Nickel 1000 μM, 30 h): 0.29 ± 0.04 g/L | Ethanol ([2]; Nickel 1000 μM, 30 h): 0.44 ± 0.09 g/L | OD600 nm ([2]; Nickel 1000 μM, 30 h): 0.705 ± 0.014 | Acetate ([2]; Nickel 1000 μM, 54 h): 0.39 ± 0.02 g/L | Ethanol ([2]; Nickel 1000 μM, 54 h): 0.74 ± 0.05 g/L | OD600 nm ([2]; Nickel 1000 μM, 54 h): 1.058 ± 0.006 | Acetate ([2]; Nickel 1000 μM, 102 h): 0.62 ± 0.21 g/L | Ethanol ([2]; Nickel 1000 μM, 102 h): 0.88 ± 0.03 g/L | OD600 nm ([2]; Nickel 1000 μM, 102 h): 0.943 ± 0.002 | Acetate ([2]; Nickel 1000 μM, 127 h): 0.47 ± 0.11 g/L | Ethanol ([2]; Nickel 1000 μM, 127 h): 1.04 ± 0.02 g/L | OD600 nm ([2]; Nickel 1000 μM, 127 h): 0.981 ± 0.088 | total microbial cell density ([3]; 0.1 mM nickel above LM33): 1.1 g/L | total microbial cell density ([3]; 1 mM nickel above LM33): 1.2 g/L | Acetate ([3]; Additional Nickel 0.1 mM, 18 h): 0.57 g/L | Cell density ([3]; Additional Nickel 0.1 mM, 18 h): 0.14 g/L | Ethanol ([3]; Additional Nickel 0.1 mM, 18 h): 0.37 g/L | Acetate ([3]; Additional Nickel 0.1 mM, 30 h): 0.61 g/L | Cell density ([3]; Additional Nickel 0.1 mM, 30 h): 0.54 g/L | Ethanol ([3]; Additional Nickel 0.1 mM, 30 h): 2.63 g/L | Acetate ([3]; Additional Nickel 0.1 mM, 80 h): 0.38 g/L | Cell density ([3]; Additional Nickel 0.1 mM, 80 h): 1.08 g/L | Ethanol ([3]; Additional Nickel 0.1 mM, 80 h): 7.14 g/L | Acetate ([3]; Additional Nickel 1 mM, 18 h): 0.48 g/L | Cell density ([3]; Additional Nickel 1 mM, 18 h): 0.18 g/L | Ethanol ([3]; Additional Nickel 1 mM, 18 h): 0.47 g/L | Acetate ([3]; Additional Nickel 1 mM, 30 h): 0.85 g/L | Cell density ([3]; Additional Nickel 1 mM, 30 h): 0.59 g/L | Ethanol ([3]; Additional Nickel 1 mM, 30 h): 2.59 g/L | Acetate ([3]; Additional Nickel 1 mM, 80 h): 0.66 g/L | Cell density ([3]; Additional Nickel 1 mM, 80 h): 1.23 g/L | Ethanol ([3]; Additional Nickel 1 mM, 80 h): 9.04 g/L
